Literature values in patent publication US20130184316A1, “METHODS FOR DIAGNOSING AND TREATING CONCUSSIVE DISORDERS” (priority 2010, published 2013).

Legend:
[1] = test system: patients with idiopathic cerebellar ataxia; details: literature (Sprenger et al.); cited from earlier work
[2] = test system: patients with type-2 episodic ataxia (EA2); details: literature reports; cited from earlier work

| Compound | Gravity-dependent symptoms associated with ataxic episodes [1] | Symptoms of EA2 (including downbeat nystagmus) [2] |
| --- | --- | --- |
| Nc1ccncc1N [3,4-DAP, 3,4-diamino pyridine] | effective in ameliorating some gravity-dependent symptoms |  |
| CC(=O)Nc1nnc(S(N)(=O)=O)s1 [acetazolamide] |  | attenuated |
